Measurements reported in patent US4293483A, “Derivatives of A-30912A nucleus” (priority 1980, dated 1981).
Like-named read-outs stand apart in the source and are kept apart here. Numbered stars: 1 amine (or outer) side, 2 acyl side, 3 side chain; on linkers, the order of the positions; unused ones are H or OH. Bridge positions count the residues as written; N and C are the ends. Square brackets hold non-standard residues; d marks the D form. Peptide text beside a SMILES is read from it. * marks the point of attachment. ξ: configuration not given here. Orn(4R-OH,5R-OH) = O=C([C@H](C[C@@H](O)[C@@H](O)N[*:3])N[*:1])[*:2]; hTyr(3S-OH,4S-OH) = N[C@H](C(=O)O)[C@H](O)[C@@H](O)c1ccc(O)cc1; Pro(3S-OH,4S-Me) = C[C@H]1CN[C@H](C(=O)O)[C@H]1O; 4Abz(2-Cl) = O=C(c1ccc(N[*:1])cc1Cl)[*:2]; X5 = O=C(c1cc(Cl)cc(N[*:1])c1Cl)[*:2]; X9 = COc1ccc(C(=O)[*:2])cc1N[*:1]; Hyp = O=C(O)[C@@H]1C[C@@H](O)CN1; X7 = Cc1ccc(C(=O)[*:2])cc1N[*:1]; X8 = O=C(c1ccc(N[*:1])cc1O)[*:2]; Lauroyl = CCCCCCCCCCCC(=O)*; Decanoyl = CCCCCCCCCC(=O)*; 3Abz = Nc1cccc(C(=O)O)c1; 4Abz = Nc1ccc(C(=O)O)cc1; Heptanoyl = CCCCCCC(=O)*; Octanoyl = CCCCCCCC(=O)*; ξF = NC(Cc1ccccc1)C(=O)O; Aun = NCCCCCCCCCCC(=O)O

Tests used:
[1] = system: Saccharomyces pastorianus X-52; assay: Agar plate disc diffusion test, zone of inhibition; type: cell-based; settings: Saccharomyces pastorianus, X52, 48 h, Saccharomyces pastorianus X-52; 1 mg/ml suspension in methanol, 7 mm disc; 24-48 hours at 25-37° C.; read-out: Size of Zone of Inhibition
Method: (§1) ^(a) Compounds were tested as suspension in methanol.
(§2) were tested at a concentration of 1 mg/ml by a dipping 7mm disc into the
(§3) suspension and placing it on the agar surface. Incubation: 24-48 hours at

Neurospora Crassa 846 = assay: Agar plate disc diffusion test, zone of inhibition; type: cell-based; settings: Neurospora crassa, 7 mm disc
Method: as §1, §2, §3

[2] = system: Trichophyton mentagrophytes; assay: Agar plate disc diffusion test, zone of inhibition; type: cell-based; settings: 7 mm disc
Method: as §1, §2, §3

Candida albicans A-26 [3] = assay: Agar plate disc diffusion test, zone of inhibition; type: cell-based; settings: 7 mm disc; for Size of Zone of Inhibition: 1 mg/ml suspension in methanol, 24-48 hours at 25-37° C., no regrowth mark
Method: as §1, §2, §3

Candida albicans A-26 [4] = assay: Agar plate disc diffusion test, MIC per disc; type: cell-based; settings: 0.01M sodium borate, pH 7.5, 24 hours at 30° C.
Method: (§4) In Table 5, activity is measured by the minimal inhibitory concentration (MIC) of the substance (μg/disc) required to inhibit growth of the test organism.
(§5) *Compounds were suspended in 0.01M sodium borate solution, pH 7.5.
(§6) compounds were tested at 20 μg/disc at top level and at twofold
(§7) dilutions until end points were reached.

[5] = system: Trychophyton mentagrophytes #6; assay: Agar plate disc diffusion test, MIC per disc; type: cell-based; settings: 0.01M sodium borate, pH 7.5, 24 hours at 30° C.
Method: as §4, §5, §6, §7

Candida albicans A-26 [6] = assay: Therapeutic activity against Candida albicans A-26 infection in mice; type: in vivo; settings: A26, sc
Method: The results of in vivo tests to evaluate the effectiveness of the compound of Examples 61-81, 86 and 88 against an infection caused by Candida albicans A-26 in mice are given in Table 7, where activity is measured by the ED50 value (the dose in mg/kg. required to cure 50% of the test animals). Where an ED50 value was not obtained, activity is indicated by the lowest dose at which a significant anti-fungal effect is observed. In this test, groups of male albino mice (specific pathogen free), weighing 18 to 20 grams, are infected intravenously with Candida albicans A-26. The animals are X-irradiated 24 hours prior to infection at about 50 roentgens per minute for 8 minutes (400 total dose) to reduce immune responses to the infecting organism. At 0, 4, and 24 hours post infection each group of mice is given graded doses subcutaneously of the test compound as a suspension in 33% polyethylene glycol-water. The day of death for each animal is recorded.
*Dosage Schedule: 40, 20, 15, and 10 mg/kg. Dosages given 0, 4, and 24
hours post injection as suspension of test compound in 30% PEGH2 O.
Number of mice receiving test compounds at each dosage level: 6 mice per
group. Number of mice in control (untreated) group: 10 mice per group.
**As measured by increase in survival time of treated animals versus
control, calculated by method of Reed V. Mueuch, American J. Hygiene, 493

[7] = mouse, in vivo, 416 mg/kg, 240 min
[8] = CRASSA846, Neurospora Crassa 846, 1 mg/ml, * measurable zone of inhibition with regrowth of organism around disc, read-out: Size of Zone of Inhibition (*)
[9] = 1 mg/ml, * measurable zone of inhibition with regrowth of organism around disc, read-out: Size of Zone of Inhibition (*)
[10] = subcutaneous at 0, 4 and 24 hours post infection, dose to cure 50% of test animals, by increase in survival time, read-out: ED50
[11] = subcutaneous at 0, 4 and 24 hours post infection, lowest dose with significant anti-fungal effect, read-out: Lowest Active Dose
[12] = read-out: Lowest Active Dose, subcutaneous at 0, 4 and 24 hours post infection, lowest dose with significant anti-fungal effect

Row | MIC (Candida albicans A-26 [4]) | MIC [5] | Blood Levels [7] | SMILES | zone of inhibition at 1000 µg/mL [1] | zone of inhibition at 1000 µg/mL (Neurospora Crassa 846; [8]) | zone of inhibition at 1000 µg/mL [2, 9] | Size of Zone of Inhibition (Candida albicans A-26 [3]) | ED50 (Candida albicans A-26 [6]; [10]) | minimal effective dose (Candida albicans A-26 [6]; [11]) | zone of inhibition at 1000 µg/mL (Neurospora Crassa 846; CRASSA846, 48 h, Neurospora Crassa 846, 1 mg/ml suspension in methanol, 24-48 hours at 25-37° C., no regrowth mark, read-out: Size of Zone of Inhibition) | zone of inhibition at 1000 µg/mL ([2]; 48 h, 1 mg/ml suspension in methanol, 24-48 hours at 25-37° C., no regrowth mark, read-out: Size of Zone of Inhibition) | Size of Zone of Inhibition (*) (Candida albicans A-26 [3]; 1 mg/ml, * measurable zone of inhibition with regrowth of organism around disc) | ED50 (Candida albicans A-26 [6]) | minimal effective dose (Candida albicans A-26 [6]; [12])
1 | 0.625 μg/disc | < 0.039 μg/disc | 0 µg/mL | CCCCCCCCCCCC(=O)NC(Cc1ccccc1)C(=O)N[C@H]1C[C@@H](O)[C@@H](O)NC(=O)[C@@H]2[C@@H](O)[C@@H](C)CN2C(=O)[C@H]([C@@H](C)O)NC(=O)[C@H]([C@H](O)[C@@H](O)c2ccc(O)cc2)NC(=O)[C@@H]2C[C@@H](O)CN2C(=O)[C@H]([C@@H](C)O)NC1=O (stereo partly drawn) [Example 61] (Lauroyl-[ξF][Orn(4R-OH,5R-OH)]T[Hyp][hTyr(3S-OH,4S-OH)]T[Pro(3S-OH,4S-Me)]; lactam 2-C) | 18 mm | 42 mm | 55 mm | 25 mm | > 40 mg/kg | > 40 mg/kg | – | – | – | – | –
2 | 5.0 μg/disc | < 0.039 μg/disc | 0 µg/mL | CCCCCCCCCCCC(=O)Nc1cccc(C(=O)N[C@H]2C[C@@H](O)[C@@H](O)NC(=O)[C@@H]3[C@@H](O)[C@@H](C)CN3C(=O)[C@H]([C@@H](C)O)NC(=O)[C@H]([C@H](O)[C@@H](O)c3ccc(O)cc3)NC(=O)[C@@H]3C[C@@H](O)CN3C(=O)[C@H]([C@@H](C)O)NC2=O)c1 [Example 65] ({Lauroyl-3Abz}-[Orn(4R-OH,5R-OH)]T[Hyp][hTyr(3S-OH,4S-OH)]T[Pro(3S-OH,4S-Me)]; lactam 1-C) | 17 mm | – | – | 20 mm | > 40 mg/kg | > 40 mg/kg | – | – | – | – | –
3 | 1.25 μg/disc | < 0.039 μg/disc | 0 µg/mL | CCCCCCCCCCCC(=O)Nc1ccc(C(=O)N[C@H]2C[C@@H](O)[C@@H](O)NC(=O)[C@@H]3[C@@H](O)[C@@H](C)CN3C(=O)[C@H]([C@@H](C)O)NC(=O)[C@H]([C@H](O)[C@@H](O)c3ccc(O)cc3)NC(=O)[C@@H]3C[C@@H](O)CN3C(=O)[C@H]([C@@H](C)O)NC2=O)c(O)c1 [Example 66] (Lauroyl-[X8][Orn(4R-OH,5R-OH)]T[Hyp][hTyr(3S-OH,4S-OH)]T[Pro(3S-OH,4S-Me)]; lactam 2-C) | 18 mm | – | – | 23 mm | > 40 mg/kg | 40 mg/kg | – | – | – | – | –
4 | > 20 μg/disc | < 0.039 μg/disc | 0 µg/mL | CCCCCCCCCCCC(=O)Nc1cc(C(=O)N[C@H]2C[C@@H](O)[C@@H](O)NC(=O)[C@@H]3[C@@H](O)[C@@H](C)CN3C(=O)[C@H]([C@@H](C)O)NC(=O)[C@H]([C@H](O)[C@@H](O)c3ccc(O)cc3)NC(=O)[C@@H]3C[C@@H](O)CN3C(=O)[C@H]([C@@H](C)O)NC2=O)ccc1C [Example 69] (Lauroyl-[X7][Orn(4R-OH,5R-OH)]T[Hyp][hTyr(3S-OH,4S-OH)]T[Pro(3S-OH,4S-Me)]; lactam 2-C) | 17 mm | 30 mm | – | 16 mm | > 40 mg/kg | > 40 mg/kg | – | – | – | – | –
5 | – | – | – | CCCCCCCCCCCC(=O)Nc1cc(C(=O)N[C@H]2C[C@@H](O)[C@@H](O)NC(=O)[C@@H]3[C@@H](O)[C@@H](C)CN3C(=O)[C@H]([C@@H](C)O)NC(=O)[C@H]([C@H](O)[C@@H](O)c3ccc(O)cc3)NC(=O)[C@@H]3C[C@@H](O)CN3C(=O)[C@H]([C@@H](C)O)NC2=O)ccc1OC [Example 71] (Lauroyl-[X9][Orn(4R-OH,5R-OH)]T[Hyp][hTyr(3S-OH,4S-OH)]T[Pro(3S-OH,4S-Me)]; lactam 2-C) | 10 mm | 32 mm | 50 mm | 20 mm | > 40 mg/kg | > 40 mg/kg | – | – | – | – | –
6 | – | 0.625 μg/disc | 0 µg/mL | CCCCCCC(=O)NCCCCCCCCCCC(=O)N[C@H]1C[C@@H](O)[C@@H](O)NC(=O)[C@@H]2[C@@H](O)[C@@H](C)CN2C(=O)[C@H]([C@@H](C)O)NC(=O)[C@H]([C@H](O)[C@@H](O)c2ccc(O)cc2)NC(=O)[C@@H]2C[C@@H](O)CN2C(=O)[C@H]([C@@H](C)O)NC1=O [Example 76] ({Heptanoyl-Aun}-[Orn(4R-OH,5R-OH)]T[Hyp][hTyr(3S-OH,4S-OH)]T[Pro(3S-OH,4S-Me)]; lactam 1-C) | – | 20 mm | 35 mm | 10 mm | > 40 mg/kg | > 40 mg/kg | – | – | – | – | –
7 | – | – | – | CCCCCCCC(=O)Nc1ccc(C(=O)N[C@H]2C[C@@H](O)[C@@H](O)NC(=O)[C@@H]3[C@@H](O)[C@@H](C)CN3C(=O)[C@H]([C@@H](C)O)NC(=O)[C@H]([C@H](O)[C@@H](O)c3ccc(O)cc3)NC(=O)[C@@H]3C[C@@H](O)CN3C(=O)[C@H]([C@@H](C)O)NC2=O)c(Cl)c1 [Example 86] (Octanoyl-[4Abz(2-Cl)][Orn(4R-OH,5R-OH)]T[Hyp][hTyr(3S-OH,4S-OH)]T[Pro(3S-OH,4S-Me)]; lactam 2-C) | – | – | – | – | 29 mg/kg | 10 mg/kg | – | – | – | – | –
8 | – | – | – | CCCCCCCC(=O)Nc1cc(Cl)cc(C(=O)N[C@H]2C[C@@H](O)[C@@H](O)NC(=O)[C@@H]3[C@@H](O)[C@@H](C)CN3C(=O)[C@H]([C@@H](C)O)NC(=O)[C@H]([C@H](O)[C@@H](O)c3ccc(O)cc3)NC(=O)[C@@H]3C[C@@H](O)CN3C(=O)[C@H]([C@@H](C)O)NC2=O)c1Cl [Example 88] (Octanoyl-[X5][Orn(4R-OH,5R-OH)]T[Hyp][hTyr(3S-OH,4S-OH)]T[Pro(3S-OH,4S-Me)]; lactam 2-C) | – | – | – | – | – | – | – | – | – | > 40 mg/kg | 20 mg/kg

Row | SMILES | MIC (Candida albicans A-26 [4]) | MIC [5] | Blood Levels [7] | zone of inhibition at 1000 µg/mL [1] | zone of inhibition at 1000 µg/mL (Neurospora Crassa 846; [8]) | zone of inhibition at 1000 µg/mL [2, 9] | Size of Zone of Inhibition (Candida albicans A-26 [3]) | ED50 (Candida albicans A-26 [6]; [10]) | minimal effective dose (Candida albicans A-26 [6]; [11]) | zone of inhibition at 1000 µg/mL (Neurospora Crassa 846; CRASSA846, 48 h, Neurospora Crassa 846, 1 mg/ml suspension in methanol, 24-48 hours at 25-37° C., no regrowth mark, read-out: Size of Zone of Inhibition) | zone of inhibition at 1000 µg/mL ([2]; 48 h, 1 mg/ml suspension in methanol, 24-48 hours at 25-37° C., no regrowth mark, read-out: Size of Zone of Inhibition) | Size of Zone of Inhibition (*) (Candida albicans A-26 [3]; 1 mg/ml, * measurable zone of inhibition with regrowth of organism around disc) | ED50 (Candida albicans A-26 [6]) | minimal effective dose (Candida albicans A-26 [6]; [12])
9 | CCCCCCC(=O)Nc1ccc(C(=O)N[C@H]2C[C@@H](O)[C@@H](O)NC(=O)[C@@H]3[C@@H](O)[C@@H](C)CN3C(=O)[C@H]([C@@H](C)O)NC(=O)[C@H]([C@H](O)[C@@H](O)c3ccc(O)cc3)NC(=O)[C@@H]3C[C@@H](O)CN3C(=O)[C@H]([C@@H](C)O)NC2=O)cc1 [Example 78] ({Heptanoyl-4Abz}-[Orn(4R-OH,5R-OH)]T[Hyp][hTyr(3S-OH,4S-OH)]T[Pro(3S-OH,4S-Me)]; lactam 1-C) | – | 1.25 μg/disc | – | 20 mm | – | – | – | – | – | 25 mm | 14 mm | 45 mm | > 40 mg/kg | > 40 mg/kg
10 | CCCCCCCCCC(=O)Nc1ccc(C(=O)N[C@H]2C[C@@H](O)[C@@H](O)NC(=O)[C@@H]3[C@@H](O)[C@@H](C)CN3C(=O)[C@H]([C@@H](C)O)NC(=O)[C@H]([C@H](O)[C@@H](O)c3ccc(O)cc3)NC(=O)[C@@H]3C[C@@H](O)CN3C(=O)[C@H]([C@@H](C)O)NC2=O)cc1 [Example 79] ({Decanoyl-4Abz}-[Orn(4R-OH,5R-OH)]T[Hyp][hTyr(3S-OH,4S-OH)]T[Pro(3S-OH,4S-Me)]; lactam 1-C) | 0.625 μg/disc | – | – | 17 mm | 30 mm | – | 24 mm | – | – | – | – | – | 26 mg/kg | 5 mg/kg
